Structures can show the parent of a compound that is named as a salt.
Columns and labels:
[1] = pH of 1% (w/v) aqueous solution of the salt; type: physicochemical; conditions: 1% (w/v) in water
Protocol: The sodium and potassium salts of the ursodeoxycholic acid, whose 1% (w/v) aqueous solutions show pH values respectively equal to 7.80 and 7.90, are prepared in a similar manner.
20 Ml of a 0.5 M aqueous solution (10 mmoles) of 1-(2-hydroxyethyl)pyrrolidine are added under stirring to a suspension containing 3.92 g (10 mmoles) of ursodeoxycholic acid in 50 ml of water prolonging the stirring until complete solubilization. The obtained solution is then freeze-dried obtaining with quantitative yield a white powder corresponding to the salt in object.
The N-methyl-D-glucamine and L-arginine salts of the ursodeoxycholic acid, whose 1% (w/v) aqueous solutions show pH values respectively equal to 8.06 and 7.75, are prepared in a similar manner.
10 Ml of a 1 M aqueous solution (10 mmoles) of choline bicarbonate are added under stirring to a suspension containing 3.92 g (10 mmoles) of ursodeoxycholic acid in 50 ml of water prolonging the stirring until complete solubilization.

[2] = intestinal bacterial flora; pH lower than 8.4; cited from earlier work

Row | Compound | pH value of a 1% (w/v) aqueous solution [1] | biotransformation of the unabsorbed portion [2]
1 | C[C@H](CCC(=O)O)[C@H]1CC[C@H]2[C@@H]3[C@@H](O)C[C@@H]4C[C@H](O)CC[C@]4(C)[C@H]3CC[C@]12C [potassium salt of the ursodeoxycholic acid] | 7.90 | –
2 | C[C@H](CCC(=O)O)[C@H]1CC[C@H]2[C@@H]3[C@@H](O)C[C@@H]4C[C@H](O)CC[C@]4(C)[C@H]3CC[C@]12C [sodium salt of the ursodeoxycholic acid] | 7.80 | –
3 | C[C@H](CCC(=O)O)[C@H]1CC[C@H]2[C@@H]3[C@@H](O)C[C@@H]4C[C@H](O)CC[C@]4(C)[C@H]3CC[C@]12C [Example 3, CHOLINE SALT OF THE URSODEOXYCHOLIC ACID] | 7.40 | –
4 | C[C@H](CCC(=O)O)[C@H]1CC[C@H]2[C@@H]3[C@@H](O)C[C@@H]4C[C@H](O)CC[C@]4(C)[C@H]3CC[C@]12C [Example 1, LITHIUM SALT OF THE URSODEOXYCHOLIC ACID] | 8.13 | –
5 | C[C@H](CCC(=O)O)[C@H]1CC[C@H]2[C@@H]3[C@@H](O)C[C@@H]4C[C@H](O)CC[C@]4(C)[C@H]3CC[C@]12C [Example 2, 1-(2-HYDROXYETHYL)PYRROLIDINE SALT OF THE URSODEOXYCHOLIC ACID] | 7.90 | –
6 | C[C@H](CCC(=O)O)[C@H]1CC[C@H]2[C@@H]3[C@@H](O)C[C@@H]4C[C@H](O)CC[C@]4(C)[C@H]3CC[C@]12C [ursodeoxycholic acid] | – | undergoes a biotransformation to litocholic acid
7 | C[C@H](CCC(=O)O)[C@H]1CC[C@H]2[C@@H]3[C@@H](O)C[C@@H]4C[C@H](O)CC[C@]4(C)[C@H]3CC[C@]12C [N-methyl-D-glucamine salt of the ursodeoxycholic acid] | 8.06 | –
8 | C[C@H](CCC(=O)O)[C@H]1CC[C@H]2[C@@H]3[C@@H](O)C[C@@H]4C[C@H](O)CC[C@]4(C)[C@H]3CC[C@]12C [L-arginine salt of the ursodeoxycholic acid] | 7.75 | –
